# From US20210261528A1, “SALTS OF (S)-(5-CYCLOBUTOXY-2-METHYL-6-(1-(PIPERIDIN-4-YL)-1H-PYRAZOL-4-YL)-3,4-DIHYDROQUINOLIN-1(2H)-YL)(CYCLOPROPYL)METHANONE AND SOLID FORMS THEREOF” (FORMA Therapeutics, Inc., priority 2018, published 2021)
# Key:
# Assay type in all cases: physicochemical
# [1] = Slurry competition between Compound 2 Form G and Form O for stability evaluation (Example 10, Table 24); details: IPAc and MTBE, RT and 50° C., 24 hours
# Procedure: The slurry competition experiments between the two anhydrates, Form G and Form O, were performed in two solvents, IPAc and MTBE, at RT and 50° C. for stability evaluation. Form O was dissolved in IPAc and MTBE respectively to get saturated solutions. Then, similar masses of Form G and Form O were added into a 2-mL vial, upon which the corresponding saturated solution was added to give the slurry, which was stirred at RT or 50° C. for 24 hours. The solids collected were analyzed by XRPD to confirm the form change.
# [2] = Hygroscopicity evaluation by Dynamic Vapor Sorption (DVS) with XRPD of the solids after DVS; details: for solid form after the DVS test: XRPD of solids after DVS
# Procedure: Dynamic Vapor Sorption (DVS) was obtained using a Surface Measurement Systems (SMS) DVS Intrinsic. The relative humidity at 25° C. were calibrated against deliquescence point of LiCl, Mg (NO3)2 and KCl.
# [3] = Slurry turnover of Compound 2 Form B, Form I and Form G (Example 11, Table 25); details: IPAc and MTBE, RT or 50° C., 24 hours
# Procedure: To further study the form identity of Form B and Form I, slurry turnover experiments were performed in two solvents with the addition of Form G. Form B was dissolved in IPAc and MTBE respectively to get saturated solutions. Similar mass of Form B, G and I were weighed into a 2-mL vial, upon which the corresponding saturated solution was added to give the slurry, which was stirred at RT or 50° C. After slurry for 24 hours, the solids obtained were analyzed by XRPD.
# [4] = Critical aw between Compound 2 Form G and Form I, slurry turnover in H2O/IPAc (Example 12, Table 26); details: H2O/IPAc, RT and 50° C., 24 hrs; except aw of 0.8 at RT (close to amorphous)
# Procedure: To investigate the critical aw between hydrated Form I and the stable anhydrate, Form G, slurry turnover of Form I and Form G was conducted in a co-solvent system (H2O/IPAc) with different aw at RT and 50° C. Similar mass of Form G and Form I were added into a 2-mL vial, followed by adding solvent and stirring at RT or 50° C. for 24 hrs. The solids obtained were analyzed by XRPD to confirm the form change.
# [5] = Aqueous solubility estimation of Compound 2 Form G, Form O and Form I at RT (Example 13, Table 27)
# Procedure: Aqueous solubility tests at RT were conducted on the two potential anhydrates, Form G and O, and the hydrated Form I. About 3 mg of each form was weighed into a 2-mL vial. […] of water was added and stirred thoroughly at RT with the speed of 800 RPM.
# [6] = Chemical stability by HPLC-UV at 275 nm and 254 nm (Table 9)
# Procedure: High Pressure Liquid Chromatography (HPLC) data were obtained according to Tables 6 or 7, below:
# A standard stock was dissolved with diluent in a volumetric flask (e.g., 25 mg in 25 mL). This stock was vortexed and sonicated 10 sec to dissolve, and then diluted 1:10, 1:4, and 1:2 either in volumetric flasks or in HPLC vials to generate a standard curve. […] Where appropriate, a blank was created to accurately replicate the matrix of the analytical sample, and peaks appearing in the blank were identified before integration and quantification using Chemstation software.
# The chemical stability of Succinate Form A was determined using HPLC-UV at 275 nm and 254 nm.
# The chemical stability of Form G was determined using HPLC-UV at 275 nm and 254 nm.
# [7] = Physical stability of Compound 2 Form G over 42 days at varying conditions by XRPD, PLM, DSC/TGA (Table 23)
# Procedure: The stability of Compound 2 Form G was tested over 42 days at varying conditions and is reported below in Table 23 and in FIG. 61:
# On Day 38, stability samples at 50° C. were exposed to temperatures of approximately 85° C. for 24 hours.
# [8] = Slurry conversion of Fumarate Forms A, B and C (Example 6, Table 11); details: RT, about 4 days
# Procedure: Slurry conversion of Fumarate Forms A, B, and C was conducted in three different solvents.
# [9] = Aqueous solubility evaluation of Compound 1 salt forms (Example 5, Table 10)
# Procedure: For each of the experiments 1 through 5 in Table 10, about 100 mg of solid form was suspended in 1.5 mL of water, and the vial was rolled at RT for about 24 hours (25 r/min). […] Supernatant of experiment 3 was collected by filtration through a 0.45 μm membrane for HPLC analysis. For each of the experiments 6 through 10 in Table 10, about 40 mg of solid form was dissolved in 0.2 mL (0.9 mL for experiment 7) water and then analyzed by HPLC after 24-hour storage at RT.
# [10] = ambient conditions and 25° C./60% RH open, 42 days, 254 nm
# [11] = 50° C., closed, 42* days (Day 38 excursion to approximately 85° C. for 24 hours)
compound,measurement,setting,value
"C[C@H]1CCc2c(ccc(-c3cnn(C4CCNCC4)c3)c2OC2CCC2)N1C(=O)C1CC1.O=C(O)CCC(=O)O [Form G, (S)-(5-cyclobutoxy-2-methyl-6-(1-(piperidin-4-yl)-1H-pyrazol-4-yl)-3,4-dihydroquinolin-1(2H)-yl)(cyclopropyl)methanone succinate]",form obtained from slurry competition of Form G and Form O (XRPD),[1],converted to Form G completely
same,solid form after the DVS test,[2]; succinate,amorphous
same,water absorbed above 70% RH (DVS),[2]; above 70% RH,about 25.19 % (wt/wt)
same,hygroscopicity (DVS),"[2]; absorption up to 80% RH, 25° C., succinate",high hygroscopicity
same,"form obtained from slurry of a mixture of Form B, G and I (XRPD)",[3],converted to Form G completely
same,form obtained from slurry of Form G and Form I at different aw (XRPD),[4],completely converted to Form G
same,Observation Initial,"[5]; about 3 mg in 50 μL water, initial, succinate",Clear
same,solubility at 2 h,"[5]; thermodynamic from solid, water, stirring 2 hrs at 800 RPM",> 60 mg/mL
same,claim of the expected Compound 2 content by HPLC-UV,"[6]; all stability samples, 275 nm",95-107 % claim
same,impurity increase by HPLC-UV,[6]; [10],no significant impurity increase
same,reduction in purity by HPLC-UV,[6]; [10],no reduction in purity
same,DSC endotherm Temp,"[7]; 25° C./60% RH open, 1 days",125.46 °C
same,DSC endotherm ΔH,"[7]; 25° C./60% RH open, 1 days",66.76 J/g
same,TGA % weight loss before 150° C.,"[7]; 25° C./60% RH open, 1 days",0.4580%
same,DSC endotherm Temp,"[7]; 25° C./60% RH open, 3 days",125.61 °C
same,DSC endotherm ΔH,"[7]; 25° C./60% RH open, 3 days",63.86 J/g
same,TGA % weight loss before 150° C.,"[7]; 25° C./60% RH open, 3 days",0.5433%
same,DSC endotherm Temp,"[7]; 25° C./60% RH open, 7 days",125.68 °C
same,DSC endotherm ΔH,"[7]; 25° C./60% RH open, 7 days",64.19 J/g
same,TGA % weight loss before 150° C.,"[7]; 25° C./60% RH open, 7 days",0.5129%
same,DSC endotherm Temp,"[7]; 25° C./60% RH open, 14 days",125.64 °C
same,DSC endotherm ΔH,"[7]; 25° C./60% RH open, 14 days",65.95 J/g
same,TGA % weight loss before 150° C.,"[7]; 25° C./60% RH open, 14 days",0.5232%
same,DSC endotherm Temp,"[7]; 25° C./60% RH open, 21 days",125.94 °C
same,DSC endotherm ΔH,"[7]; 25° C./60% RH open, 21 days",64.03 J/g
same,TGA % weight loss before 150° C.,"[7]; 25° C./60% RH open, 21 days",0.6097%
same,DSC endotherm Temp,"[7]; 25° C./60% RH open, 42 days",126.50 °C
same,DSC endotherm ΔH,"[7]; 25° C./60% RH open, 42 days",57.76 J/g
same,TGA % weight loss before 150° C.,"[7]; 25° C./60% RH open, 42 days",0.6016%
same,flowability by visual assessment,[7]; 50° C. sample after being exposed to higher temperatures,slight reduction in flowability
same,"physical stability (XRPD, DSC/TGA, PLM)","[7]; 50° C. samples, exposed on Day 38 to approximately 85° C. for 24 hours",physically stable
same,DSC endotherm Temp,[7]; [11],121.80 °C
same,DSC endotherm ΔH,[7]; [11],51.32 J/g
same,TGA % weight loss before 150° C.,[7]; [11],0.7707%
same,DSC endotherm Temp,"[7]; 50° C., closed, 1 days",125.53 °C
same,DSC endotherm ΔH,"[7]; 50° C., closed, 1 days",67.41 J/g
same,TGA % weight loss before 150° C.,"[7]; 50° C., closed, 1 days",0.4716%
same,DSC endotherm Temp,"[7]; 50° C., closed, 3 days",125.97 °C
same,DSC endotherm ΔH,"[7]; 50° C., closed, 3 days",59.90 J/g
same,TGA % weight loss before 150° C.,"[7]; 50° C., closed, 3 days",0.4670%
same,DSC endotherm Temp,"[7]; 50° C., closed, 7 days",125.97 °C
same,DSC endotherm ΔH,"[7]; 50° C., closed, 7 days",65.47 J/g
same,TGA % weight loss before 150° C.,"[7]; 50° C., closed, 7 days",0.5022%
same,DSC endotherm Temp,"[7]; 50° C., closed, 14 days",125.16 °C
same,DSC endotherm ΔH,"[7]; 50° C., closed, 14 days",64.27 J/g
same,TGA % weight loss before 150° C.,"[7]; 50° C., closed, 14 days",0.5893%
same,DSC endotherm Temp,"[7]; 50° C., closed, 21 days",125.21 °C
same,DSC endotherm ΔH,"[7]; 50° C., closed, 21 days",64.69 J/g
same,TGA % weight loss before 150° C.,"[7]; 50° C., closed, 21 days",0.5702%
same,DSC endotherm Temp,"[7]; Initial, 0 days",125.51 °C
same,DSC endotherm ΔH,"[7]; Initial, 0 days",63.56 J/g
same,TGA % weight loss before 150° C.,"[7]; Initial, 0 days",0.5459%
same,flow properties by visual assessment,"[7]; ambient 42 days, 25° C./75% RH 42 days, 50° C. 21 days",good flow properties
same,DSC endotherm Temp,"[7]; ambient, closed, 1 days",125.59 °C
same,DSC endotherm ΔH,"[7]; ambient, closed, 1 days",62.59 J/g
same,TGA % weight loss before 150° C.,"[7]; ambient, closed, 1 days",0.5454%
same,DSC endotherm Temp,"[7]; ambient, closed, 3 days",125.61 °C
same,DSC endotherm ΔH,"[7]; ambient, closed, 3 days",63.01 J/g
same,TGA % weight loss before 150° C.,"[7]; ambient, closed, 3 days",0.5338%
same,DSC endotherm Temp,"[7]; ambient, closed, 7 days",125.41 °C
same,DSC endotherm ΔH,"[7]; ambient, closed, 7 days",63.00 J/g
same,TGA % weight loss before 150° C.,"[7]; ambient, closed, 7 days",0.5540%
same,DSC endotherm Temp,"[7]; ambient, closed, 14 days",125.52 °C
same,DSC endotherm ΔH,"[7]; ambient, closed, 14 days",63.86 J/g
same,TGA % weight loss before 150° C.,"[7]; ambient, closed, 14 days",0.4133%
same,DSC endotherm Temp,"[7]; ambient, closed, 21 days",125.38 °C
same,DSC endotherm ΔH,"[7]; ambient, closed, 21 days",67.51 J/g
same,TGA % weight loss before 150° C.,"[7]; ambient, closed, 21 days",0.8085%
same,DSC endotherm Temp,"[7]; ambient, closed, 42 days",125.35 °C
same,DSC endotherm ΔH,"[7]; ambient, closed, 42 days",66.56 J/g
same,TGA % weight loss before 150° C.,"[7]; ambient, closed, 42 days",0.4578%
same,"change in physical form by XRPD, PLM or DSC/TGA","[7]; storage conditions below 75% RH, after 42 days",no significant change in physical form
"C[C@H]1CCc2c(ccc(-c3cnn(C4CCNCC4)c3)c2OC2CCC2)N1C(=O)C1CC1.O=C(O)/C=C/C(=O)O [Fumarate Type A, B and C]",Solid form after slurry conversion,[8]; ACN,Fumarate Form A
same,Solid form after slurry conversion,[8]; Acetone,Fumarate Form B
same,Solid form after slurry conversion,[8]; EtOAc,Fumarate Form C
"C[C@H]1CCc2c(ccc(-c3cnn(C4CCNCC4)c3)c2OC2CCC2)N1C(=O)C1CC1.O=C(O)CCC(=O)O [Succinate Form A, (S)-(5-cyclobutoxy-2-methyl-6-(1-(piperidin-4-yl)-1H-pyrazol-4-yl)-3,4-dihydroquinolin-1(2H)-yl)(cyclopropyl)methanone succinate]",solubility in water,[9],> 100 mg FB/mL
same,behaviour at high humidity (DVS),"[2]; >60% RH, 25° C.",deliquescent
same,solid form after the DVS test,[2]; succinate,amorphous or jelly solids
same,chemical degradation by HPLC-UV,[6]; after 42 days at 25° C./60% RH,did not show significant chemical degradation
same,chemical degradation by HPLC-UV,[6]; after 42 days at temperatures below 40° C.,no significant chemical degradation
